The compounds below were run against T1, human α7 nAChR (Homo sapiens, UniProt P36544) (assay: Evaluation of PAM activity with human α7 nACh receptor stably expressing cells (aequorin luminescence, FDSS7000)). Conditions: 1 μM test compound (values marked *, footnote of Table 25); ACh at EC20; ratio of RLU (Max-Min) to control wells; read-out: α7PAM (%) @1 μM.
T1 construct: expressed in transfected cells
Type: cell-based
Protocol: Evaluation of PAM activity with human α7 nACh receptor stably expressing cells
(1) Human α7 nAChR stably expressing cells
Human α7 nAChR stably expressing cells were generated and cultured.
Thus, the cells were subcultured.
Seven days after subculturing, the cells were treated with TrypLE Express to collect them when they were about 80% confluent.
On the next day after seeding, Viviren (cat#E649X, Promega, Madison, Wis., USA) was added to the medium so that the final concentration could be 4 μM (15 μL/well). The plates were centrifuged and then placed in the dark for 4 hours at room temperature.
(2) Preparation of the Test Samples
Each of the test compounds was dissolved in DMSO to prepare each test sample at a concentration of 1000-fold the final concentration. To the solution was added Hanks/20 mM HEPES/0.2% BSA (cat#A3803, Sigma, St. Louis, Mo., USA), and the concentration was adjusted to 6-fold the final concentration.
(3) Evaluation of PAM Activity
FDSS7000 (Hamamatsu Photonics) was used to detect the luminescence signal evoked by α7 nAChR stimulation. The cells and a luminescent substrate were put on a plate, and the test sample was added thereto. […] The ratio of the RLU (Max-Min) of the test-compound-containing wells to that of the control wells was defined as PAM activity.

T1 sequence (P36544 23-502): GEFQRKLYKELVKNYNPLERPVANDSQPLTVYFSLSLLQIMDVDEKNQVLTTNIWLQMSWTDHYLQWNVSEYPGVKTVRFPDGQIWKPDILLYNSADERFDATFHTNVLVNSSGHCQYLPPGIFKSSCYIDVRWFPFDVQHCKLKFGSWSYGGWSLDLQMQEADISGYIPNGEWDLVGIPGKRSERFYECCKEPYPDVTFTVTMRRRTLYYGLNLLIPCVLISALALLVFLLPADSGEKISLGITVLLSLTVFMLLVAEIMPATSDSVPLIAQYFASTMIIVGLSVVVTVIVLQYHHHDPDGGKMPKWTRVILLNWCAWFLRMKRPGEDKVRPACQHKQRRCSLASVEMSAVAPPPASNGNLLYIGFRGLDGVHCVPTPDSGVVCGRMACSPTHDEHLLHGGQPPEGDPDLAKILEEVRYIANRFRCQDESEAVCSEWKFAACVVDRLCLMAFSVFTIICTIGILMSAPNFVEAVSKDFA

SMILES | activity at 1 µM [%]
O=C(NC1CCC1)N1CCC(n2cnc(-c3ccccc3)c2Cl)CC1 [Example 79] | 112
CC(C)(F)C(=O)N[C@H]1CC[C@@H](n2cnc(-c3ccc(OC(F)(F)F)c(F)c3)c2)CC1 [Example 296] | 589
O=C(C1CCC(F)(F)CC1)N1[C@@H]2CC[C@H]1C[C@@H](n1cnc(-c3cccc(F)c3F)c1)C2 [Example 429] | 111
O=C(N[C@H]1CC[C@@H](n2cnc(-c3cccc(F)c3)c2Cl)CC1)C1CCC1 [Example 176] | 258
O=C(NC1CCCCC1)N1[C@@H]2CC[C@H]1C[C@@H](n1cnc(-c3cccc(F)c3F)c1)C2 [Example 387] | 315
O=C(NC1CCC(F)(F)CC1)N1[C@@H]2CC[C@H]1C[C@@H](n1cnc(-c3ccc(F)cc3F)c1)C2 [Example 384] | 652

Same assay, conditions: 10 μM test compound; ACh at EC20; ratio of RLU (Max-Min) to control wells; read-out: α7PAM (%) @10 μM

SMILES | activity at 10 µM [%]
O=C(NC1CCCCC1)N1[C@@H]2CC[C@H]1C[C@H](n1cnc(-c3ccc(F)cc3)c1)C2 [Example 405] | 402
O=C(C1CCC(F)(F)CC1)N1CCCC(n2cnc(-c3ccc(F)cc3)c2)CC1 (centres unmarked) [Example 242] | 297
O=C(NC1CCC(F)(F)CC1)N1CCC(n2cnc(-c3ccc(OC(F)F)cc3)c2)CC1 [Example 60] | 616
CC1(NC(=O)N2CCC(n3cnc(-c4cccc(F)c4)c3)CC2)CCC1 [Example 31] | 300
Cc1ccccc1-c1cn(C2CCN(C(=O)NC3CCCCC3)CC2)cn1 [Example 14] | 351
O=C(NC1CC2CCC1C2)N1CCC(n2cnc(-c3cccc(F)c3)c2)CC1 (centres unmarked) [Example 2, N-(Bicyclo[2.2.1]hept-2-yl)-4-[4-(3-fluorophenyl)-1H-imidazol-1-yl]piperidine-1-carboxamide] | 117
O=C(NC1CC2CCC1C2)N1CCC(n2cnc(-c3ccc(OC(F)F)cc3)c2)CC1 (centres unmarked) [Example 57] | 302
O=C(NC1CCOCC1)N1CCC(n2cnc(-c3ccc(C(F)(F)F)c(F)c3)c2)CC1 [Example 251] | 369
CCOc1ccc(-c2cn(C3CCN(C(=O)NC4CCCCC4)CC3)cn2)cc1 [Example 55] | 403
Cc1ccc(-c2cn(C3CCN(C(=O)NC4CCCCC4)CC3)cn2)s1 [Example 124] | 572
COC1CCC(NC(=O)N2CCC(n3cnc(-c4cccs4)c3)CC2)CC1 (centres unmarked) [Example 127] | 170
O=C(C1CCOCC1)N1[C@@H]2CC[C@H]1C[C@@H](n1cnc(-c3cc(F)ccc3F)c1Cl)C2 [Example 438] | 235
O=C(NC1CCCCC1)N1CCC(n2cnc(-c3ccc(Cl)s3)c2)CC1 [Example 117] | 853
O=C(NC1CCC(F)(F)CC1)N1[C@@H]2CC[C@H]1C[C@@H](n1cnc(-c3cc(F)ccc3F)c1Cl)C2 [Example 396] | 585
CCOc1ccc(-c2cn(C3CCN(C(=O)NC4CCC(F)(F)CC4)CC3)cn2)cc1 [Example 61] | 915
O=C(NC1CCCCC1)N1CCCC(n2cnc(-c3ccc(F)cc3)c2)CC1 (centres unmarked) [Example 240] | 280
N#Cc1c(-c2ccc(F)cc2F)ncn1[C@H]1C[C@H]2CC[C@@H](C1)N2C(=O)NC1CCC(F)(F)CC1 [Example 402] | 498
O=C(NC1CCCCC1)N1CCC(n2cnc(-c3cccs3)c2)CC1 [Example 123] | 345
O=C(C1CCC(F)(F)CC1)N1[C@@H]2CC[C@H]1C[C@@H](n1cnc(-c3ccccc3F)c1Cl)C2 [Example 434] | 512
O=C(NC1CCC(F)(F)CC1)N1[C@@H]2CC[C@H]1C[C@@H](n1cnc(-c3ccc(F)cc3F)c1Cl)C2 [Example 394] | 455
N#Cc1c(-c2ccc(F)cc2)ncn1[C@@H]1C[C@H]2CC[C@@H](C1)N2C(=O)C1CCC(F)(F)CC1 [Example 461] | 162
O=C(NC1CCC(F)(F)CC1)N1[C@@H]2CC[C@H]1C[C@H](n1cnc(-c3cccc(F)c3F)c1)C2 [Example 409] | 576
O=C(NC1CCC(F)(F)CC1)N1CCC(n2cnc(-c3ccc(F)c(F)c3)c2)CC1 [Example 28] | 798
N#Cc1c(-c2cccc(F)c2F)ncn1[C@@H]1C[C@H]2CC[C@@H](C1)N2C(=O)NC1CCC(F)(F)CC1 [Example 424] | 210
O=C(NC1CCCCC1)N1[C@@H]2CC[C@H]1C[C@H](n1cnc(-c3ccccc3)c1)C2 [Example 406] | 629
O=C(C1CCC(F)(F)CC1)N1[C@@H]2CC[C@H]1C[C@@H](n1cnc(-c3ccccc3)c1)C2 [Example 428] | 144
Cc1ccc(-c2cn(C3CCN(C(=O)NC4CCC(F)(F)CC4)CC3)cn2)s1 [Example 126] | 780

The next lines start with the values.

activity at 10 µM [%] | SMILES
644 | N#Cc1c(-c2ccccc2)ncn1C1CCN(C(=O)C2CCC(F)(F)CC2)CC1 [Example 7, 1-{1-[(4,4-Difluorocyclohexyl)carbonyl]piperidin-4-yl}-4-phenyl-1H-imidazole-5-carbonitrile]
169 | CC(C)(F)C(=O)N[C@H]1CC[C@@H](n2cnc(-c3ccc(OC(F)(F)F)cc3)c2C#N)CC1 [Example 346]
367 | N#Cc1c(-c2cccc(Cl)c2)ncn1C1CCN(C(=O)C2CCC(F)(F)CC2)CC1 [Example 160]
513 | COc1ccc(-c2cn([C@H]3CC[C@@H](NC(=O)C(C)(C)F)CC3)cn2)cc1Cl [Example 308]
325 | CC(C)(F)C(=O)N[C@H]1CC[C@@H](n2cnc(-c3cc(F)cc(F)c3)c2)CC1 [Example 302]
142 | O=C(N[C@H]1CC[C@@H](n2cnc(-c3cccc(C(F)(F)F)c3)c2Cl)CC1)C1CCC1 [Example 195]
197 | O=C(NC1CCOCC1)N1CCC(n2cnc(-c3ccc(F)cc3)c2)CC1 [Example 245]
210 | CC(C)(F)C(=O)N[C@H]1CC[C@@H](n2cnc(-c3cccc(OC(F)(F)F)c3)c2Cl)CC1 [Example 325]
637 | CC(C)(F)C(=O)N[C@H]1CC[C@@H](n2cnc(-c3ccccc3)c2C#N)CC1 [Example 197, N-[cis-4-(5-cyano-4-phenyl-1H-imidazol-1-yl)cyclohexyl]-2-fluoro-2-methylpropanamide]
314 | O=C(NC1CCCCC1)N1CCCC(n2cnc(-c3ccc(F)cc3)c2Cl)CC1 (centres unmarked) [Example 241]
153 | CC(C)(F)C(=O)N[C@H]1CC[C@@H](n2cnc(-c3cccc(OC(F)(F)F)c3)c2C#N)CC1 [Example 345]
834 | CC(C)(F)C(=O)N[C@H]1CC[C@@H](n2cnc(-c3ccc(OC(F)(F)F)cc3)c2)CC1 [Example 278]
160 | CC(C)(C)NC(=O)N1CCC(n2cnc(-c3ccc(F)cc3)c2)CC1 [Example 63]
644 | N#Cc1c(-c2ccc(F)cc2)ncn1C1CCN(C(=O)C2CCC(F)(F)CC2)CC1 [Example 154, 1-{1-[(4,4-difluorocyclohexyl)carbonyl]piperidin-4-yl}-4-(4-fluorophenyl)-1H-imidazole-5-carbonitrile]
457 | N#Cc1c(-c2cc(F)ccc2F)ncn1[C@H]1CC[C@@H](C(=O)NC2CCOCC2)CC1 [Example 375]
708 | CC(C)(C)NC(=O)N1CCC(n2cnc(-c3ccccc3)c2C#N)CC1 [Example 100]
263 | CC(C)(F)C(=O)N[C@H]1CC[C@@H](n2cnc(-c3cccc(C(F)(F)F)c3)c2C#N)CC1 [Example 202]
327 | CC(F)(F)C(=O)N[C@H]1CC[C@@H](n2cnc(-c3ccc(F)cc3)c2)CC1 [Example 288]
233 | CC(C)(F)C(=O)N[C@H]1CC[C@@H](n2cnc(-c3ccc(Cl)cc3)c2C#N)CC1 [Example 333]
290 | O=C(C1CCC(F)(F)CC1)N1CCCC(n2cnc(-c3ccc(F)cc3)c2Cl)CC1 (centres unmarked) [Example 243]
794 | O=C(NC1COC1)[C@H]1CC[C@@H](n2cnc(-c3ccc(C(F)(F)F)cc3)c2Cl)CC1 [Example 361]
207 | Cc1c(-c2ccc(F)cc2)ncn1[C@H]1CC[C@@H](Nc2cc(C(F)(F)F)ncn2)CC1 [Example 239]
530 | O=C(N[C@H]1CC[C@@H](n2cnc(-c3ccccc3)c2Cl)CC1)C1CCCC1 [Example 170]
405 | Fc1ccc(-c2ncn([C@H]3CC[C@@H](Nc4cc(C(F)(F)F)ncn4)CC3)c2Cl)cc1 [Example 237]
171 | O=C(NC1CCCCC1)N1CCC(n2cnc(-c3ccccn3)c2Cl)CC1 [Example 134]
799 | N#Cc1c(-c2ccccc2)ncn1[C@H]1CC[C@@H](NC(=O)C2CCC2)CC1 [Example 198]

Same assay, conditions: GH4-C1, 10 μM test compound; ratio of RLU (Max-Min) of test wells to control wells after ACh at EC20; GH4C1 cells expressing human α7 nAChR and aequorin; read-out: α7PAM (%) @10 μM

activity at 10 µM [%] | SMILES
113 | CC(C)(C)NC(=O)[C@H]1CC[C@H](n2cnc(-c3ccccc3)c2)CC1 [Example 232]

Same assay, conditions: comparison across Tables 18 to 25

PAM activity for α7 nAChR (in words) | SMILES
stronger PAM activity than others | COc1cc(-c2cn(C3CCN(C(=O)NC4CCCCC4)CC3)cn2)ccc1Cl [Example 72]
stronger PAM activity than others | Cc1ccc(-c2cn(C3CCN(C(=O)NC4CCCCC4)CC3)cn2)cc1 [Example 18]
